The source of these data is patent US12084444B2, “Spiro-lactam NMDA modulators and methods of using same” (Tenacia Biotechnology (Hong Kong) Co., Limited, priority 2016, dated 2024).

A short description of data set [1]: Oral pharmacokinetics (plasma, brain, CSF). It counts as in vivo, Sprague Dawley rats. Particulars: rat, per os, 10 mg/kg; for AUC(0-t) / bioavailability / Tmax / Cmax: Sprague Dawley, plasma, po; for Tmax: normal saline. The procedure: In another experiment, Sprague Dawley rats were dosed per os using a normal saline formulation containing 10 mg/kg of the compounds identified in the table below. Plasma, brain, and CSF samples were analyzed at various time points over a 24 hour period. The table below summarizes the results of the oral pharmacokinetics.

In data set [2] the target is T1, NMDAR2A expressing HEK cell membranes (Homo sapiens, UniProt Q12879).
T1 construct: expressed in transfected cells; host or cells: HEK cells (membrane extract)
The data set is described as follows: NMDAR agonist assay, [3H]MK-801 binding, NMDAR2A. It counts as biochemical. Further details: key to NMDAR2A B: log EC50: 0=−; ≥1×10^−9 M (e.g., −8)=+; <1×10^−9 M (e.g., −10)=++. Particulars: 50 μM glutamate. The procedure: (§1) Assays were conducted as described by Moskal et al., “GLYX-13: a monoclonal antibody-derived peptide that acts as an N-methyl-D-aspartate receptor modulator,” Neuropharmacology, 49, 1077-87, 2005. These studies were designed to determine if the test compounds act to facilitate NMDAR activation in NMDAR2A, NMDAR2B, NMDAR2C or NMDAR2D expressing HEK cell membranes as measured by increases in [^3H]MK-801 binding.
(§2) In the assay, 300 μg of NMDAR expressing HEK cell membrane extract protein was preincubated for 15 minutes at 25° C. in the presence of saturating concentrations of glutamate (50 μM) and varying concentrations of test compound (1×10^−15 M-1×10^−7 M), or 1 mM glycine. Following the addition of 0.3 μCi of [^3H]MK-801 (22.5 Ci/mmol), reactions were again incubated for 15 minutes at 25° C. (nonequilibrium conditions). Bound and free [^3H]MK-801 were separated via rapid filtration using a Brandel apparatus.
(§3) In analyzing the data, the DPM (disintegrations per minute) of [^3H]MK-801 remaining on the filter were measured for each concentration of test compound or for 1 mM glycine. The DPM values for each concentration of a ligand (N=2) were averaged. The baseline value was determined from the best fit curve of the DPM values modeled using the GraphPad program and the log(agonist) vs. response(three parameters) algorithm was then subtracted from all points in the dataset. The % maximal [^3H]MK-801 binding was then calculated relative to that of 1 mM glycine: all baseline subtracted DPM values were divided by the average value for 1 mM glycine. The EC50 and % maximal activity were then obtained from the best fit curve of the % maximal [^3H]MK-801 binding data modelled using the GraphPad program and the log(agonist) vs. response(three parameters) algorithm.
(§4) The tables below summarize the results for the wild type NMDAR agonists NMDAR2A, NMDAR2B, NMDAR2C, and NMDAR2D, and whether the compound is not an agonist (−), is an agonist (+), or is a strong agonist (++), where column A is based on the % maximal [^3H]MK-801 binding relative to 1 mM glycine (−=0; <100%=+; and >100%=++); and column B is based on log EC50 values (0=−; ≥1×10^−9 M (e.g., −8)=+; and <1×10^−9 M (e.g., −10)=++).

The target of data set [3] is T2, NMDAR2A expressing HEK cell membranes (Homo sapiens, UniProt Q05586+Q12879).
T2 construct: expressed in transfected cells; host or cells: HEK cells (membrane extract)
The data set is described as follows: NMDAR agonist assay, [3H]MK-801 binding, NMDAR2A. Particulars: 50 μM glutamate; for Emax: 0.25 h, read-out: NMDAR2A A: % maximal [3H]MK-801 binding relative to 1 mM glycine; for EC50: read-out: NMDAR2A B: log EC50 (converted). It counts as biochemical. Set-up: key to NMDAR2A B: log EC50: 0=−; ≥1×10^−9 M (e.g., −8)=+; <1×10^−9 M (e.g., −10)=++. The procedure:
as §1, §2, §3, §4

For data set [4], the target named is T3, NMDAR2B expressing HEK cell membranes (Homo sapiens, UniProt Q05586+Q13224).
T3 construct: expressed in transfected cells; host or cells: HEK cells (membrane extract)
The data set is described as follows: NMDAR agonist assay, [3H]MK-801 binding, NMDAR2B. It counts as biochemical. Set-up: key to NMDAR2B B: log EC50: 0=−; ≥1×10^−9 M (e.g., −8)=+; <1×10^−9 M (e.g., −10)=++. Particulars: 50 μM glutamate; for EC50: read-out: NMDAR2B B: log EC50 (converted); for Emax: 0.25 h, read-out: NMDAR2B A: % maximal [3H]MK-801 binding relative to 1 mM glycine. The procedure:
as §1, §2, §3, §4

The next data set in a line: IV pharmacokinetics. Set-up: species or system Sprague Dawley rats. Particulars: Sprague Dawley, in vivo, rat, 2 mg/kg, normal saline; for Vd: read-out: Vss. The procedure:
Sprague Dawley rats were dosed intravenously using a normal saline formulation containing 2 mg/kg of the compounds identified in the below table. The table below summarizes the results of the IV pharmacokinetics.

For data set [5], the target named is T4, NMDAR2B expressing HEK cell membranes (Homo sapiens, UniProt Q13224).
T4 construct: expressed in transfected cells; host or cells: HEK cells (membrane extract)
Put plainly: NMDAR agonist assay, [3H]MK-801 binding, NMDAR2B. It counts as biochemical. Further details: key to NMDAR2B B: log EC50: 0=−; ≥1×10^−9 M (e.g., −8)=+; <1×10^−9 M (e.g., −10)=++. Particulars: 50 μM glutamate. The procedure: as §1, §2, §3, §4

SMILES strings stand for the structures.

T3 sequence (Q13224 27-1484, other chains not shown): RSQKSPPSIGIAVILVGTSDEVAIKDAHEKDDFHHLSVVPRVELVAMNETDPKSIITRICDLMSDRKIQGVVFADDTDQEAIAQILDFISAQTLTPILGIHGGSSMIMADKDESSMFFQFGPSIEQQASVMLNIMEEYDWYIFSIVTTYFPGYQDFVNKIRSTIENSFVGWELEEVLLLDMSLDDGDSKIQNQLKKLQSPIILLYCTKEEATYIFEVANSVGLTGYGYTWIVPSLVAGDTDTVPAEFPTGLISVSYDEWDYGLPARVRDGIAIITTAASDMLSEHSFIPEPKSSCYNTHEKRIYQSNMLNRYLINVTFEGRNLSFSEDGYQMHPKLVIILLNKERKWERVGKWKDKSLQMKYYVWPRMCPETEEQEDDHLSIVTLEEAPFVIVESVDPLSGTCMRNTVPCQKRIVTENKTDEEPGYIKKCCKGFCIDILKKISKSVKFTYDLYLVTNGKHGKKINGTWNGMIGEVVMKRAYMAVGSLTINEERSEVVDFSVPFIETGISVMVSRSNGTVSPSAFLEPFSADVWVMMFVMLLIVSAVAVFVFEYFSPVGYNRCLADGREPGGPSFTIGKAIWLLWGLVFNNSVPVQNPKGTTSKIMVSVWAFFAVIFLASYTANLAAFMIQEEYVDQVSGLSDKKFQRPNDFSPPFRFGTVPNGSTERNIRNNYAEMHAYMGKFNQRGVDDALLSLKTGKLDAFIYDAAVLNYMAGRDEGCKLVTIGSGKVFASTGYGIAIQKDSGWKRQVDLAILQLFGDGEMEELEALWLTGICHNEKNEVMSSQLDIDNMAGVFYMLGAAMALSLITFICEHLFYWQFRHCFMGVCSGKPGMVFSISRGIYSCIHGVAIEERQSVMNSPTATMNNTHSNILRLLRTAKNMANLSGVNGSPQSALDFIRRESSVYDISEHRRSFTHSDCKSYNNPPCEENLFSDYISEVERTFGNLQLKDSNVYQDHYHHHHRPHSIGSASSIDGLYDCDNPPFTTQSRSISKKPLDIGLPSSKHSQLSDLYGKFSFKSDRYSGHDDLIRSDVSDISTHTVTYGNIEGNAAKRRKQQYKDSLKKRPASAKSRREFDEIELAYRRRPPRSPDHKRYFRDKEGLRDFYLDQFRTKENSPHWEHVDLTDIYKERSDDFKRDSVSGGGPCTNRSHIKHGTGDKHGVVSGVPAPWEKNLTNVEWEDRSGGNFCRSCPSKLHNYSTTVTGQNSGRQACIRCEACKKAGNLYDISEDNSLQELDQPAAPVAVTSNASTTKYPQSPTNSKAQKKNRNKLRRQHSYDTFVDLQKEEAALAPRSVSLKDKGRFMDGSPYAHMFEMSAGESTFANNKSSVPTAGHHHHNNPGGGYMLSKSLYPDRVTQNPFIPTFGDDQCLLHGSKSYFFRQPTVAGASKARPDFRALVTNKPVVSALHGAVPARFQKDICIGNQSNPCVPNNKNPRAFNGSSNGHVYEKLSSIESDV
T4 sequence (Q13224 27-1484, other chains not shown): as above
T2 sequence (Q12879 23-1464, other chains not shown): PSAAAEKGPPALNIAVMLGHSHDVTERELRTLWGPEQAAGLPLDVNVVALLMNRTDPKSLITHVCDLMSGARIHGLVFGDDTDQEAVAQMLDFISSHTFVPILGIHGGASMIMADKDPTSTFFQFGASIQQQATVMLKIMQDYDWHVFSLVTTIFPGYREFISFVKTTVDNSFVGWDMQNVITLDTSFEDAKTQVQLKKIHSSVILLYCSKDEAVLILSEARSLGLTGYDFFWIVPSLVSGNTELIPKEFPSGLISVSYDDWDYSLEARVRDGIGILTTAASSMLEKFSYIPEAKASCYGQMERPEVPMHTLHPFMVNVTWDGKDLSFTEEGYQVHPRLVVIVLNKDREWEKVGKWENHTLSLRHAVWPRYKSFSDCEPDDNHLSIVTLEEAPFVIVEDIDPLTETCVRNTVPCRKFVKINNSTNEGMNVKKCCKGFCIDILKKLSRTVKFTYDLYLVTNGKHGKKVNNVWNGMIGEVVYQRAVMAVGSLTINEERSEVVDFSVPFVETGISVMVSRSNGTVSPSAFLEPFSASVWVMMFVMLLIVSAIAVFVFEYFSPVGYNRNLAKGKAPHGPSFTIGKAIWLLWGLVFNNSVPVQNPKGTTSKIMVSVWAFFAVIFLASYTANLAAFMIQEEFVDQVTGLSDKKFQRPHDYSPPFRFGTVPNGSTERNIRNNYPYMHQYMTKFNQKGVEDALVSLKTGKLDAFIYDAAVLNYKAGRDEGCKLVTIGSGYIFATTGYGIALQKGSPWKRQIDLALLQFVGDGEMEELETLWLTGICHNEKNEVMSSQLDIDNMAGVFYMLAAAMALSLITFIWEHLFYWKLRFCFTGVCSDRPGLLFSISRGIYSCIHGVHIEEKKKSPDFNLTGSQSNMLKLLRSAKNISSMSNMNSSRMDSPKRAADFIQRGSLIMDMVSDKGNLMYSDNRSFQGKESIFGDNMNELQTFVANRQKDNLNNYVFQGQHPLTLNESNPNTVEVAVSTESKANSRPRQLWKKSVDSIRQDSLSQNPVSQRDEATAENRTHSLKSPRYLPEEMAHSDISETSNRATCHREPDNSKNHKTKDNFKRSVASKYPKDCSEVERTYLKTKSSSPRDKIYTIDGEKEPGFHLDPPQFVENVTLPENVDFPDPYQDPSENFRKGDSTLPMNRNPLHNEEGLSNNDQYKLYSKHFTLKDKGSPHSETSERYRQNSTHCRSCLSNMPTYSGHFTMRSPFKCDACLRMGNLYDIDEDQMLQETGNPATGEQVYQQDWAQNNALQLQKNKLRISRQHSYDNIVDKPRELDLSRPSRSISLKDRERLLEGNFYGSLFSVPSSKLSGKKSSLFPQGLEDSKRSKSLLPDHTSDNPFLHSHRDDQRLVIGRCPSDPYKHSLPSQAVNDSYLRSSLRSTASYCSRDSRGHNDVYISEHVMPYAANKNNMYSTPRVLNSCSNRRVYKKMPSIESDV

As for `C[C@@H](O)[C@@H](C(=O)NCc1ccccc1)N1CC2(CCNC(=O)C2)C1=O` (single isomer, unassigned) [CB], in data set [1], the AUC(0-t) is 297 ng·h/mL, the bioavailability is 5%, the Tmax is 30 min and the Cmax was found to be 143 ng/mL. Further, in data set [1], the “CSF Cmax” value amounted to 31.02 ng/mL and the “Brain Cmax” value stood at 7.38 ng/mL. Further, the “NMDAR2A B: log EC50” value in data set [2] is listed as “−”. Also, in data set [3], the Emax was 0%. In data set [4], the EC50 is below 1 nM and the Emax was below 100%. In the data set “IV pharmacokinetics”, the area under the curve AUC(0-t) came to 1320 ng·h/mL, the C0 came out at 4320 ng/mL, the clearance is 25.3 mL/min/kg and the half-life was 106 min. Further, in “IV pharmacokinetics”, the Vd is 1.2 L/kg.
`C[C@@H](O)[C@@H](C(=O)N(C)C)N1CC2(CCNC(=O)C2)C1=O` (single isomer, unassigned) [CC]: in data set [1], the AUC(0-t) came out at 701 ng·h/mL, the bioavailability turned out to be 7%, the Tmax was found to be 25.2 min and the peak level (Cmax) was 191 ng/mL. For the same compound, in data set [1], the “CSF Cmax” value stood at 0 ng/mL and the “Brain Cmax” value stood at 0 ng/mL. For the same compound, in data set [2], the “NMDAR2A A: % maximal [3H]MK-801 binding relative to 1 mM glycine” value is reported as “− (−=0)” and the “NMDAR2A B: log EC50” value is on record as “−”. Further, in data set [4], the concentration for a half-maximal effect (EC50) was below 1 nM and the Emax is below 100%. Further, in “IV pharmacokinetics”, the AUC(0-t) worked out at 2130 ng·h/mL, the C0 came to 7930 ng/mL, the clearance was 15.7 mL/min/kg and the half-life was 127 min. Further, in the data set “IV pharmacokinetics”, the Vd was 0.5 L/kg.
Consider `COc1ccc(CN2CC3(CCN(C)C(=O)C3)C2=O)cc1` (single isomer, unassigned) [CI, 2-(4-methoxybenzyl)-7-methyl-2,7-diazaspiro[3.5]nonane-1,6-dione], for which, in data set [1], the AUC(0-t) came to 5060 ng·h/mL, the bioavailability was found to be 97%, the Tmax turned out to be 15 min and the Cmax was found to be 5050 ng/mL. In data set [1], the “CSF Cmax” value is 1113.94 ng/mL and the “Brain Cmax” value is given as 996.66 ng/mL. In data set [3], the concentration giving a half-maximal response (EC50) was below 1 nM and the Emax is below 100%. For the same compound, in data set [4], the half-maximal effective concentration (EC50) was below 1 nM and the Emax is below 100%. Besides, in “IV pharmacokinetics”, the AUC(0-t) came out at 1040 ng·h/mL, the C0 came out at 2120 ng/mL, the clearance stood at 32 mL/min/kg and the half-life was 25.2 min. In addition, in “IV pharmacokinetics”, the Vd is 0.91 L/kg.
Turning to `CCN1CCC2(CC1=O)CN(Cc1ccc(OC)cc1)C2=O` (single isomer, unassigned) [CL, 7-ethyl-2-(4-methoxybenzyl)-2,7-diazaspiro[3.5]nonane-1,6-dione], in data set [1], the area under the curve AUC(0-t) worked out at 1430 ng·h/mL, the bioavailability is 37%, the Tmax is 15 min and the peak level (Cmax) was 1800 ng/mL. In data set [1], the “CSF Cmax” value is listed as 866.42 ng/mL and the “Brain Cmax” value came out at 707.6 ng/mL. Besides, in data set [3], the EC50 was below 1 nM and the Emax was below 100%. In data set [4], the EC50 is below 1 nM and the Emax is below 100%. In the data set “IV pharmacokinetics”, this compound had an exposure AUC(0-t) of 772 ng·h/mL, a C0 of 2690 ng/mL, a clearance of 41.7 mL/min/kg and a half-life of 12.6 min. In the data set “IV pharmacokinetics”, the Vd turned out to be 0.7 L/kg.
As to `C[C@@H](O)[C@@H](C(=O)NCc1ccccc1)N1CC2(CCNC(=O)C2)C1=O` (stereo partly drawn) [CA, (2S,3R)—N-benzyl-2-(1,6-dioxo-2,7-diazaspiro[3.5]nonan-2-yl)-3-hydroxybutanamide], the “NMDAR2A B: log EC50” value in data set [2] is “−”. In addition, the Emax in data set [3] and in data set [4] was 0% in each case. For the same compound, the “NMDAR2B B: log EC50” value in data set [5] was “−”.
For the compound `CC1CC(=O)N(c2ccc(F)cc2)C12CN(CC(N)=O)C2=O` (centres unmarked) [CE, 2-(5-(4-fluorophenyl)-8-methyl-1,6-dioxo-2,5-diazaspiro[3.4]octan-2-yl)acetamide], the “NMDAR2A B: log EC50” value in data set [2] is given as “−”. The Emax in data set [3] and in data set [4] was 0% each time. Further, the “NMDAR2B B: log EC50” value in data set [5] is recorded as “−”.
As for `CC1C(N)C(=O)N(C)C12CN(Cc1ccccc1)C2=O` (centres unmarked) [CH, 7-amino-2-benzyl-5,8-dimethyl-2,5-diazaspiro[3.4]octane-1,6-dione], the “NMDAR2A B: log EC50” value in data set [2] is listed as “−”. In addition, the Emax in data set [3] and in data set [4] was 0% each time. Moreover, in data set [5], the “NMDAR2B B: log EC50” value is on record as “−”.
Turning to `CCN1CCC2(CC1=O)CN(Cc1ccc(OC)cc1)C2=O` (centres unmarked) [CK, 7-ethyl-2-(4-methoxybenzyl)-2,7-diazaspiro[3.5]nonane-1,6-dione], the “NMDAR2A B: log EC50” value in data set [2] is on record as “−”. Besides, the Emax in data set [3] and in data set [4] was 0% each time. Also, the “NMDAR2B B: log EC50” value in data set [5] is “−”.
On to `CNC(=O)[C@H]([C@@H](C)O)N1CC2(CCNC(=O)C2)C1=O` (stereo partly drawn) [DA, (2S,3R)-2-(1,6-dioxo-2,7-diazaspiro[3.5]nonan-2-yl)-3-hydroxy-N-methylbutanamide], for which the “NMDAR2A B: log EC50” value in data set [2] is given as “−”. The Emax in data set [3] and in data set [4] was 0% throughout. Besides, the “NMDAR2B B: log EC50” value in data set [5] is “−”.

What is called AUC(0-t) is the area under the concentration-time curve up to a stated or last time point. As a reminder, the bioavailability is the share of a dose that reaches the circulation, judged against a reference dose that is usually intravenous. What is called Tmax is the time from dosing to the highest level. The term Cmax denotes the peak of the concentration-time curve. In general, EC50 refers to the concentration that produces a half-maximal response. One may read the clearance as the volume of plasma or blood freed of the substance per unit of time. The half-life is how long it takes for the measured level to halve.
